Measurements from patent US12214036B2, “Combination therapy comprising AXL/MER and PD-1/PD-L1 inhibitors” (Incyte Corporation, priority 2020, dated 2025).

Target: T1, MER (Homo sapiens, UniProt Q12866)
T1 construct: recombinant phosphorylated forms of the kinase domains for AXL, MER and TYRO3; purchased Carna Biosciences 08-108
T1 sequence (Q12866 587-858 limits assumed): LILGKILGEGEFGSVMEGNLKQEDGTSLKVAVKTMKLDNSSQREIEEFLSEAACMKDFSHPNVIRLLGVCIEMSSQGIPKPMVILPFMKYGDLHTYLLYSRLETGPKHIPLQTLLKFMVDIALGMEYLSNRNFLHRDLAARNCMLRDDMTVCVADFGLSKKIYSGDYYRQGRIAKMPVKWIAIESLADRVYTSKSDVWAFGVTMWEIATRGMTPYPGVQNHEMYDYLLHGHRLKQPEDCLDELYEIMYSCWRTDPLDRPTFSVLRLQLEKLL
Assay: TR-FRET kinase assay, cMER
Type: biochemical
Protocol: The biochemical potency of Compound 1 to inhibit the enzymatic activity of TAM family members was investigated by TR-FRET assays using recombinant phosphorylated forms of the kinase domains for AXL, MER and TYRO3.
Phospho-AXL (pAXL), cMER and Tyro3 kinase activities were measured by time-resolved fluorescence energy transfer (TR-FRET) assays. Autophosphorylation of AXL was carried out before the kinase assay by incubating the recombinant AXL protein (ThermoFisher Scientific; #PV4275) in buffer containing 50 mM Tris, pH 7.5, 0.2 mg/mL AXL, 5 mM ATP, 20 mM MgCl2 and 2 mM dithiothreitol (DTT) at room temperature for 1 hour. […] The plate was incubated for 30 minutes at room temperature, and homogenous time resolved fluorescence (HTRF) signal was measured on a PheraStar FS plate reader (BMG Labtech, Ortenberg, Germany). Percent inhibition was calculated for each concentration, and half maximal inhibitory concentration (IC50) value was generated from curve fitting with GraphPad Prism software (San Diego, Calif.).
Compound reversibility was determined by measuring the recovery of cMER enzymatic activity after a rapid and large dilution of the cMER-inhibitor complex. cMER, ATP, and biotin-labeled peptide substrate were diluted in kinase assay buffer containing 50 mM HEPES, pH 7.5, 10 mM MgCl2, 1 mM EGTA, 0.01% NP-40, and 2 mM DTT. […]

Question: With CC(C)C(=O)N1CCC(c2cc(-c3ccc(NC(=O)c4cn(C(C)C)c(=O)n(-c5ccccn5)c4=O)cc3)c3c(N)ncnn23)CC1 [Compound 1, N-(4-(4-Amino-7-(1-isobutyrylpiperidin-4-yl)pyrrolo[1,2-f][1,2,4]triazin-5-yl)phenyl)-1-isopropyl-2,4-dioxo-3-(pyridin-2-yl)-1,2,3,4-tetrahydropyrimidine-5-carboxamide] as the compound, how does the “mode of inhibition with respect to ATP concentration” value (MER kinase assay, IC50 at 25, 100, 300, 1000 μM ATP (FIG. 1)) read?
Answer: Its value is “ATP-competitive mode of inhibition”.

Question: What about the IC50 (average from multiple lots, n=25, read-out: IC50 against MER) of the same compound?
Answer: Its IC50 is 3.17 ± 1.97 nM.
